ChEMBL document CHEMBL4480460, “Concise Modular Synthesis of Thalassotalic Acids A-C” (J Nat Prod, 2019)

The compounds below were run against T1, Tyrosinase (Agaricus bisporus, UniProt O42713).
T1 sequence (O42713 whole entry): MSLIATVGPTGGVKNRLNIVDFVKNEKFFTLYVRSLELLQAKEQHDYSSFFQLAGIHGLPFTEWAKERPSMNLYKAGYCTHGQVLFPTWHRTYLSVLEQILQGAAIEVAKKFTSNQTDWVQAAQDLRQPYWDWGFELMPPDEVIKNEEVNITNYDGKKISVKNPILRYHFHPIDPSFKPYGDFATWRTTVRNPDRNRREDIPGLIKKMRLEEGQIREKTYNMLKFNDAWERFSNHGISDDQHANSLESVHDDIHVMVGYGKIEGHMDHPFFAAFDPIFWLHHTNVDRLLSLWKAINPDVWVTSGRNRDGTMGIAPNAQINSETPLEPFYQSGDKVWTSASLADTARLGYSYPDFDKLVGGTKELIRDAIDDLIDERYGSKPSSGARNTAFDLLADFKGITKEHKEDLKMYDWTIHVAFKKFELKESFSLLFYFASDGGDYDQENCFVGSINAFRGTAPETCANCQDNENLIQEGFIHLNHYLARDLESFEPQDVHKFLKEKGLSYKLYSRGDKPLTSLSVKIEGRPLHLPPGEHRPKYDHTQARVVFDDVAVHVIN
Description: Inhibition of mushroom tyrosinase using L-tyrosine as substrate measured after 30 mins

| IC50 | Compound |
| --- | --- |
| 250 µM | CCCCCCCCC(=O)N/C(=C\c1ccc(O)cc1)C(=O)O |
| 180 µM | O=C(O)/C(=C/c1ccc(O)cc1)NC(=O)c1ccccc1 |
| 65 µM | CC(=O)N/C(=C\c1ccc(O)cc1)C(=O)O |
